Measurements as given in ChEMBL document CHEMBL5584339, “Design, Synthesis, and Evaluation of the Antitubercular Activity of 5-Phenyl Substituted-5, 6-dihydropyrido[2, 3-d]pyrimidine-4, 7(3H, 8H)-dione Compounds” (J Med Chem, 2024).
Converted amounts (≈) assume the structure as drawn. The source made the active and inactive calls. The rule behind the calls is not given here.

Columns and labels:
[1] = system: Mycobacterium tuberculosis; assay: Antitubercular activity against Mycobacterium tuberculosis H37Rv incubated for 7 days by alamar blue assay; format: functional; settings: 168 h, time 7 day
[2] = Cytotoxicity against african green monkey Vero cells incubated for 48 hrs by CCK8 assay; format: toxicity, cell-based, Chlorocebus sabaeus
[3] = Selectivity index, ratio of IC50 for african green monkey Vero cells to IC50 for Mycobacterium tuberculosis H37Rv; format: toxicity; settings: read-out: Ratio IC50
[4] = Cytotoxicity against HK-2 cells incubated for 48 hrs by CCK8 assay; format: toxicity, cell-based; settings: human
[5] = Metabolic stability in mouse liver microsomes assessed as substrate remaining at 2 uM preincubated for 60 mins followed by NADPH addition and measured upto 60 mins by LC-MS analysis; format: ADME, Microsome; settings: time < 120 min, read-out: Stability
[6] = Metabolic stability in mouse liver microsomes assessed as half-life at 2 uM preincubated for 60 mins followed by NADPH addition and measured upto 60 mins by LC-MS analysis; format: ADME, Microsome; settings: time < 120 min
[7] = Metabolic stability in mouse liver microsomes assessed as intrinsic clearance per mg protein at 2 uM preincubated for 60 mins followed by NADPH addition and measured upto 60 mins by LC-MS analysis; format: ADME, Microsome; settings: time < 120 min, read-out: CLH
[8] = Metabolic stability in human liver microsomes assessed as substrate remaining at 2 uM preincubated for 60 mins followed by NADPH addition and measured upto 60 mins by LC-MS analysis; format: ADME, Microsome; settings: time < 120 min, read-out: Stability
[9] = Metabolic stability in human liver microsomes assessed as half-life at 2 uM preincubated for 60 mins followed by NADPH addition and measured upto 60 mins by LC-MS analysis; format: ADME, Microsome; settings: time < 120 min
[10] = Metabolic stability in human liver microsomes assessed as intrinsic clearance per mg protein at 2 uM preincubated for 60 mins followed by NADPH addition and measured upto 60 mins by LC-MS analysis; format: ADME, Microsome; settings: time < 120 min, read-out: CLH
[11] = system: Mycobacterium tuberculosis; assay: Binding affinity to Mycobacterium tuberculosis AccD5 at 10 uM by SPR analysis

Compound | MIC [1] | IC50 at 48 h [2] | selectivity ratio [3] | further results
CCCCSc1nc2c(c(=O)[nH]1)C(c1ccc(OC)c(O)c1)CC(=O)N2 (stereo unspecified) | 3.19 µg/mL (≈ 8.5 µM) | 40.1 µg/mL (≈ 107 µM) | 12.6 | 
CCCSc1nc2c(c(=O)n1C)C(c1ccc(OC)cc1)CC(=O)N2C (stereo unspecified) | > 10 µg/mL | 46.5 µg/mL (≈ 124 µM) |  | 
CCCSc1nc2c(c(=O)[nH]1)C(c1ccc(OC)cc1)CC(=O)N2 (racemic) | 0.16 µg/mL (≈ 0.463 µM) | 14.5 µg/mL (≈ 42 µM) | 93 | IC50 at 48 h [4]: 24.8 µg/mL (≈ 71.7 µM); remaining at 1 h, 2 µM [5]: 87.6%; half-life at 2 µM [6]: 9.33 h; microsomal CLint at 2 µM [7]: 2.48 µL/min/mg; remaining at 1 h, 2 µM [8]: 83.4%; half-life at 2 µM [9]: 3.95 h; microsomal CLint at 2 µM [10]: 5.85 µL/min/mg
CCCSc1nc2c(c(=O)[nH]1)C(c1ccccc1)CC(=O)N2 (stereo unspecified) | 9.66 µg/mL (≈ 30.6 µM) | 31.9 µg/mL (≈ 101 µM) | 3.3 | 
CCCCSc1nc2c(c(=O)[nH]1)C(c1ccc(OC)cc1)CC(=O)N2 (stereo unspecified) | 0.5 µg/mL (≈ 1.39 µM) | 46.3 µg/mL (≈ 129 µM) | 93.1 | 
NNC(=O)c1ccncc1 [ISONIAZID] | 0.05 µg/mL (≈ 0.365 µM) | > 100 µg/mL | > 2000 | 
CCCOc1ccc(C2CC(=O)Nc3nc(SCCC)[nH]c(=O)c32)cc1 (stereo unspecified) | 1 µg/mL (≈ 2.68 µM) | 12.1 µg/mL (≈ 32.3 µM) | 12.1 | 
C=CCSc1nc2c(c(=O)[nH]1)C(c1ccc(OC)c(O)c1)CC(=O)N2 (stereo unspecified) | 2.19 µg/mL (≈ 6.09 µM) | > 100 µg/mL | > 45.7 | 
CCCSc1nc2c(c(=O)[nH]1)C(c1cc(OC)c(OC)c(OC)c1)CC(=O)N2 (stereo unspecified) | > 10 µg/mL | > 100 µg/mL |  | 
CCCS(=O)(=O)c1nc2c(c(=O)[nH]1)[C@H](c1ccc(OC)cc1)CC(=O)N2 | > 32 µg/mL |  |  | 
C=CCSc1nc2c(c(=O)[nH]1)C(c1ccc(OC)cc1O)CC(=O)N2 (stereo unspecified) | 0.99 µg/mL (≈ 2.75 µM) | > 100 µg/mL | > 101 | 
CCCOc1ccc(C2CC(=O)Nc3nc(SC)[nH]c(=O)c32)cc1 (stereo unspecified) | > 10 µg/mL | 53.5 µg/mL (≈ 155 µM) | < 5.4 | 
CCCOc1ccc(C2CC(=O)Nc3nc(SCCC)[nH]c(=O)c32)cc1O (stereo unspecified) | 4.73 µg/mL (≈ 12.1 µM) | 99.3 µg/mL (≈ 255 µM) | 21 | 
CCCS(=O)(=O)c1nc2c(c(=O)[nH]1)[C@H](c1ccc(OC)cc1[N+](=O)[O-])CC(=O)N2 | > 32 µg/mL |  |  | 
C=CCSc1nc2c(c(=O)[nH]1)C(c1ccc(OCC)cc1)CC(=O)N2 (stereo unspecified) | 1 µg/mL (≈ 2.8 µM) | > 100 µg/mL | > 500 | 
CCCCCCCOc1ccc(C2CC(=O)Nc3nc(SCCC)[nH]c(=O)c32)cc1 (stereo unspecified) | > 10 µg/mL | 36.6 µg/mL (≈ 85.1 µM) |  | 
CCCSc1nc2c(c(=O)[nH]1)C(c1ccc(OCC)cc1)CC(=O)N2 (stereo unspecified) | 0.35 µg/mL (≈ 0.974 µM) | 60.1 µg/mL (≈ 167 µM) | 174 | 
CCCSc1nc2c(c(=O)[nH]1)C(c1ccc(OC)c(O)c1O)CC(=O)N2 (stereo unspecified) | > 10 µg/mL | 27.5 µg/mL (≈ 72.9 µM) |  | 
CCCCSc1nc2c(c(=O)[nH]1)C(c1ccc(OCCC)cc1)CC(=O)N2 (stereo unspecified) | > 10 µg/mL | 57 µg/mL (≈ 147 µM) |  | 
CCCSc1nc2c(c(=O)[nH]1)C(c1ccc(OC)c([N+](=O)[O-])c1)CC(=O)N2 (stereo unspecified) | 4.84 µg/mL (≈ 12.4 µM) | 67.5 µg/mL (≈ 173 µM) | 14 | 
CCCSc1nc2c(c(=O)[nH]1)C(c1ccc(OC)cc1)CC(=O)N2C (stereo unspecified) | > 10 µg/mL | 53.6 µg/mL (≈ 149 µM) |  | 
CCCSc1nc2c(c(=O)[nH]1)C(c1ccc(OC)cc1N)CC(=O)N2 (stereo unspecified) | > 10 µg/mL | > 100 µg/mL |  | 
CCCSc1nc2c(c(=O)[nH]1)C(c1ccc(OC)c(N)c1)CC(=O)N2 (stereo unspecified) | 2 µg/mL (≈ 5.55 µM) | > 100 µg/mL | > 50 | 
CCCCSc1nc2c(c(=O)[nH]1)C(c1ccc(OC)cc1O)CC(=O)N2 (stereo unspecified) | 4.65 µg/mL (≈ 12.4 µM) | 41.2 µg/mL (≈ 110 µM) | 8.87 | 

Compound | MIC [1] | IC50 at 48 h [2] | selectivity ratio [3] | further results
CCCSc1nc2c(c(=O)[nH]1)C(c1ccc(OC)c(O)c1)CC(=O)N2 (stereo unspecified) | 1.22 µg/mL (≈ 3.38 µM) | > 100 µg/mL | > 82.1 | 
COc1ccc(C2CC(=O)Nc3nc(SC)[nH]c(=O)c32)cc1 (stereo unspecified) | 9.24 µg/mL (≈ 29.1 µM) | 30.7 µg/mL (≈ 96.6 µM) | 3.32 | 
COc1ccc(C2CC(=O)Nc3nc(SC)[nH]c(=O)c32)cc1O (stereo unspecified) | > 10 µg/mL | > 100 µg/mL |  | 
CCCSc1nc2c(c(=O)[nH]1)[C@H](c1ccc(OC)cc1[N+](=O)[O-])CC(=O)N2 | 7.72 µg/mL (≈ 19.8 µM) | > 64 µg/mL |  | IC50 at 48 h [4]: 56.2 µg/mL (≈ 144 µM); Activity [11]: inactive
CCCSc1nc2c(c(=O)[nH]1)C(c1ccc(OCC(C)C)cc1)CC(=O)N2 (stereo unspecified) | > 10 µg/mL | 41.5 µg/mL (≈ 107 µM) |  | 
CCCSc1nc2c(c(=O)[nH]1)C(c1ccc(OC)cc1[N+](=O)[O-])CC(=O)N2 (racemic) | 0.12 µg/mL (≈ 0.307 µM) | > 100 µg/mL | > 833 | IC50 at 48 h [4]: > 100 µg/mL; remaining at 1 h, 2 µM [5]: 66.8%; half-life at 2 µM [6]: 1.62 h; microsomal CLint at 2 µM [7]: 14.2 µL/min/mg; remaining at 1 h, 2 µM [8]: 73.7%; half-life at 2 µM [9]: 2.07 h; microsomal CLint at 2 µM [10]: 11.2 µL/min/mg
CCCSc1nc2c(c(=O)[nH]1)C(c1ccc(OC(C)C)cc1)CC(=O)N2 (stereo unspecified) | 2.12 µg/mL (≈ 5.68 µM) | 24.9 µg/mL (≈ 66.7 µM) | 11.7 | 
CCC[S+]([O-])c1nc2c(c(=O)[nH]1)[C@@H](c1ccc(OC)cc1)CC(=O)N2 (stereo partly specified) | > 32 µg/mL |  |  | 
CCC[S+]([O-])c1nc2c(c(=O)[nH]1)[C@H](c1ccc(OC)cc1)CC(=O)N2 (stereo partly specified) | > 32 µg/mL |  |  | 
CCC[S+]([O-])c1nc2c(c(=O)[nH]1)[C@@H](c1ccc(OC)cc1[N+](=O)[O-])CC(=O)N2 (stereo partly specified) | > 32 µg/mL |  |  | 
C=CCSc1nc2c(c(=O)[nH]1)C(c1ccc(OC)cc1[N+](=O)[O-])CC(=O)N2 (stereo unspecified) | 0.5 µg/mL (≈ 1.29 µM) | > 100 µg/mL | > 200 | 
CCC[S+]([O-])c1nc2c(c(=O)[nH]1)[C@H](c1ccc(OC)cc1[N+](=O)[O-])CC(=O)N2 (stereo partly specified) | > 32 µg/mL |  |  | 
C=CCSc1nc2c(c(=O)[nH]1)C(c1ccc(OC)cc1)CC(=O)N2 (stereo unspecified) | 0.5 µg/mL (≈ 1.46 µM) | 41.1 µg/mL (≈ 120 µM) | 82.2 | 
CCCSc1nc2c(c(=O)[nH]1)[C@H](c1ccc(OC)cc1)CC(=O)N2 | 7.83 µg/mL (≈ 22.7 µM) | > 64 µg/mL |  | IC50 at 48 h [4]: 73.1 µg/mL (≈ 212 µM)
COc1ccc(C2CC(=O)Nc3nc(SC)[nH]c(=O)c32)c(O)c1 (stereo unspecified) | > 10 µg/mL | > 100 µg/mL |  | 
CCCSc1nc2c(c(=O)[nH]1)C(c1ccc(OC)cc1O)CC(=O)N2 (stereo unspecified) | 0.95 µg/mL (≈ 2.63 µM) | 54.1 µg/mL (≈ 150 µM) | 56.9 | 
C=CCSc1nc2c(c(=O)[nH]1)C(c1ccc(OCCC)cc1)CC(=O)N2 (stereo unspecified) | 1.98 µg/mL (≈ 5.33 µM) | 4.57 µg/mL (≈ 12.3 µM) | 2.31 | 
CCCSc1nc2c(c(=O)n1C)C(c1ccccc1)CC(=O)N2C (stereo unspecified) | > 10 µg/mL |  |  | 
CCCSc1nc2c(c(=O)[nH]1)C(c1ccc(OC)c(OC)c1)CC(=O)N2 (stereo unspecified) | > 10 µg/mL | 20.4 µg/mL (≈ 54.5 µM) | < 2 | 
CCCOc1ccc(C2CC(=O)Nc3nc(SCCC)[nH]c(=O)c32)c(O)c1 (stereo unspecified) | 1.23 µg/mL (≈ 3.16 µM) | 43.9 µg/mL (≈ 113 µM) | 35.6 | 
CCCS(=O)(=O)c1nc2c(c(=O)[nH]1)[C@@H](c1ccc(OC)cc1[N+](=O)[O-])CC(=O)N2 | > 32 µg/mL |  |  | 
COc1ccc(C2CC(=O)Nc3nc(SC(C)C)[nH]c(=O)c32)cc1 (stereo unspecified) | 2.27 µg/mL (≈ 6.57 µM) | > 100 µg/mL | > 44.1 | 
CCCSc1nc2c(c(=O)[nH]1)C(c1ccccc1)CC(=O)N2C (stereo unspecified) | > 10 µg/mL | 52.5 µg/mL (≈ 159 µM) | < 5.2 | 
CCCS(=O)(=O)c1nc2c(c(=O)[nH]1)[C@@H](c1ccc(OC)cc1)CC(=O)N2 | > 32 µg/mL |  |  | 
